From article PMC4412958 (The Open Medicinal Chemistry Journal, 2015)

Biological target: BACE-1 (Homo sapiens, UniProt P56817)
Assay: BACE-1 enzyme assay
Type: biochemical
Conditions: Boc-protected compound; enzyme- and cell-based screening

BACE-1, sequence (P56817 46-501): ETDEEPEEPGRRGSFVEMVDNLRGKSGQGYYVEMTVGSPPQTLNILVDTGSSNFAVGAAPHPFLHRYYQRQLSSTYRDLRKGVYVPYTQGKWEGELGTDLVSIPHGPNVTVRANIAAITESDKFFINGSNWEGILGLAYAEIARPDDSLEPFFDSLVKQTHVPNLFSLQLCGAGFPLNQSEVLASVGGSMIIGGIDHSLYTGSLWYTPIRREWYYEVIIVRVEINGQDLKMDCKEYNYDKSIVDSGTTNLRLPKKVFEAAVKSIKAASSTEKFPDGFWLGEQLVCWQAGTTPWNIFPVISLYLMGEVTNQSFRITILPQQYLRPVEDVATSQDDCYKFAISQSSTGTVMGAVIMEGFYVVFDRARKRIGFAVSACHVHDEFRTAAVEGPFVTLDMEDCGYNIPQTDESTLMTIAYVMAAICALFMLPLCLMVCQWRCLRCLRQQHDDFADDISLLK

- BACE-1 activity (in words): inactive
SMILES: Cc1cc2cc(c1)C(=O)N[C@H]([C@H](O)CN(Cc1cccc(C(C)C)c1)C(=O)OC(C)(C)C)CCC/C=C/CCCC2=O [Compound 27b, (R)-2-Hydroxy-2-((E)-(S)-16-methyl-2,13-dioxo-3-aza-bicyclo[12.3.1]octadeca-1(17),8,14(18),15-tetraen-4-yl)-ethyl-(3-isopropyl-benzyl)-carbamic acid tert-butyl ester]
